Measured values: patent publication US6034058A, “Semi-synthetic alanyl dilemnin analogs” (priority 1998, dated 2000)
Numbered stars: 1 amine (or outer) side, 2 acyl side, 3 side chain; on linkers, the order of the positions; unused ones are H or OH. Bridge positions count the residues as written; N and C are the ends. Square brackets hold non-standard residues; d marks the D form. Peptide text beside a SMILES is read from it. X1 = CC[C@H](C)[C@@H](N[*:1])[C@@H](O)CC(=O)O[C@H](C(=O)[C@H](C)C(=O)[*:2])C(C)C; NMeY = CN[C@@H](Cc1ccc(O)cc1)C(=O)O; dNMeL = CN[C@H](CC(C)C)C(=O)O

What was measured:
L1210 = assay type: cell-based; conditions: for L1210, IC90: L1210 cells, cytotoxicity
DNA and RNA viruses = conditions: against DNA and RNA viruses; cited from earlier work
[1] = in vitro; cited from earlier work
Nb2 node lymphoma cells = conditions: cited from earlier work
[2] = biological target: elongation factor-1α (EF-1α) (Homo sapiens, UniProt P68104); conditions: GEP-dependent manner; cited from earlier work
Sequence of elongation factor-1α (EF-1α) (P68104 whole entry): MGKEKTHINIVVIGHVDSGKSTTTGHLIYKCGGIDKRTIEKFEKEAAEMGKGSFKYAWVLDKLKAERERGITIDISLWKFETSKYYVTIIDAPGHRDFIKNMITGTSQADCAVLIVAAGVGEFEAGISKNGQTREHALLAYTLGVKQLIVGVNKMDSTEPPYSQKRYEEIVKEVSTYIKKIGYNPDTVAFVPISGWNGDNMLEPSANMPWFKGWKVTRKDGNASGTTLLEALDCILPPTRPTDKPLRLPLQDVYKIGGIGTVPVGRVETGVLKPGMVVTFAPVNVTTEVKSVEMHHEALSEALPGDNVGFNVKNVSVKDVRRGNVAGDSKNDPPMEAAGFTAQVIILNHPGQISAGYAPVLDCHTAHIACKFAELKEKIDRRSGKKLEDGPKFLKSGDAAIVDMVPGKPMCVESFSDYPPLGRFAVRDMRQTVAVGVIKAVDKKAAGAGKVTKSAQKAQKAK

**Q.** With “N-Benzyloxycarbonyl-L-glutaminyl-didemnin A [Cbz-Glutaminyl DA]” as the molecule, how does the “L1210, IC90” value (L1210) read?
**A.** The value was 8 ng/mL.

**Q.** Which antiviral activity (DNA and RNA viruses) does the source give for `CC[C@H](C)[C@H]1NC(=O)[C@@H](NC(=O)[C@@H](CC(C)C)N(C)C(=O)[C@@H]2CCCN2C(=O)C(C)O)[C@@H](C)OC(=O)[C@H](Cc2ccc(OC)cc2)N(C)C(=O)[C@@H]2CCCN2C(=O)[C@H](CC(C)C)NC(=O)[C@@H](C)C(=O)[C@H](C(C)C)OC(=O)C[C@@H]1O` (stereo partly shown) [Didemnin B] here?
**A.** The antiviral activity was “exhibit antiviral activity”.

**Q.** And the “cytotoxicity relative to didemnin A” value [1]?
**A.** The value was “approximately twenty times more cytotoxic than didemnin A”.

**Q.** And the “binding to a site on Nb2 node lymphoma cells” value (Nb2 node lymphoma cells)?
**A.** Its value is “binds to a site on Nb2 node lymphoma cells”.

**Q.** And the “L1210, IC90” value (L1210)?
**A.** Its value is 7 ng/mL.

**Q.** Which “L1210, IC90” value (L1210) does the source give for “L-glutaminyl-L-alaninyl-didemnin A [Glutaminyl-AlaDA]” here?
**A.** The value was 25 ng/mL.

**Q.** Which “L1210, IC90” value (L1210) does the source give for “N-Benzyloxycarbonly-L-[Alaninyl^9 ]didemnin B [Cbz-[Ala^9]DB]” here?
**A.** The value was 2 ng/mL.

**Q.** Which “L1210, IC90” value (L1210) does the source give for “L-pyroglutamyl-L-[alaninyl^9 ] didemnin B [pGlu-[Ala^9]DB]” here?
**A.** Its value is 500 ng/mL.

**Q.** For Pro-Didemnin A [Prolyl DA], which “L1210, IC90” value (L1210) is on record?
**A.** The value was 12 ng/mL.

**Q.** With “L-glutaminyl-L-[alaninyl^9 ]didemnin B [Gln-[Ala^9]DB]” as the molecule, how does the “L1210, IC90” value (L1210) read?
**A.** Its value is 200 ng/mL.

**Q.** With L-[Alaninyl^9 ] didemnin B [[Ala^9]DB] as the molecule, how does the “relative bioactivity among the didemnins synthesized” value (L1210; preliminary assay results) read?
**A.** The value was “the most active of the didemnins synthesized thus far”.

**Q.** For L-Alaninyl-didemnin A [Alaninyl DA], which “L1210, IC90” value (L1210) is on record?
**A.** The value was 8 ng/mL.

**Q.** Which “L1210, IC90” value (L1210) does the source give for “N-Benzyloxycarbonyl-L-alaninyl-didemnin A [Cbz-Alaninyl DA]” here?
**A.** Its value is 3 ng/mL.

**Q.** For `CC[C@H](C)[C@H]1NC(=O)[C@@H](NC(=O)[C@@H](CC(C)C)NC)[C@@H](C)OC(=O)[C@H](Cc2ccc(OC)cc2)N(C)C(=O)[C@@H]2CCCN2C(=O)[C@H](CC(C)C)NC(=O)[C@@H](C)C(=O)[C@H](C(C)C)OC(=O)C[C@@H]1O` [Didemnin A] (H-[dNMeL]T[X1]LP[NMeY](Me); ester 2-C), which “binding to EF-1α” value [2] is on record?
**A.** Its value is “binds elongation factor-1α (EF-1α)”.

**Q.** And the antiviral activity (DNA and RNA viruses)?
**A.** Its antiviral activity is “exhibit antiviral activity”.

**Q.** What about the “L1210, IC90” value (L1210) of the same molecule?
**A.** Its value is 75 ng/mL.
